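Cultured in 96-well plates, cells were exposed to test compound for 48 hours across five concentrations. GI50 is the concentration that inhibits growth by half.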 Activity calls are given as the source filed them. No stated cut-off is given here; in the data, active = GI50 up to about 1.1 µM and inactive = higher.
Assays:
Assay in all cases: NCI tumour cell line growth inhibition, 48 h
UACC-257 = system: UACC-257
K562 = system: K562
LOX IMVI = system: LOX IMVI
SN12C = system: SN12C
OVCAR-5 = system: OVCAR-5
OVCAR-4 = system: OVCAR-4
SK-MEL-5 = system: SK-MEL-5
NCI-H522 = system: NCI-H522
TK-10 = system: TK-10
SK-MEL-2 = system: SK-MEL-2
EKVX = system: EKVX
SK-OV-3 = system: SK-OV-3
UACC-62 = system: UACC-62
HCT-15 = system: HCT-15
NCI-H23 = system: NCI-H23
HOP-62 = system: HOP-62
MOLT-4 = system: MOLT-4
T47D = system: T47D
OVCAR-8 = system: OVCAR-8
ACHN = system: ACHN

Structure (SMILES) | GI50 (UACC-257) | GI50 (K562) | GI50 (LOX IMVI) | GI50 (SN12C) | GI50 (OVCAR-5) | GI50 (OVCAR-4) | GI50 (SK-MEL-5) | GI50 (NCI-H522) | GI50 (TK-10) | GI50 (SK-MEL-2) | GI50 (EKVX) | GI50 (SK-OV-3) | GI50 (UACC-62) | GI50 (HCT-15) [µM] | GI50 (NCI-H23) | GI50 (HOP-62) | GI50 (MOLT-4) | GI50 (T47D) | GI50 (OVCAR-8) | GI50 (ACHN)
COP(=O)(/C=C/C(NC(=O)C(Cl)(Cl)Cl)c1ccccc1)OC (stereo not given) | > 100 µM (inactive) | > 100 µM (inactive) | > 100 µM (inactive) | > 100 µM (inactive) | > 100 µM (inactive) | > 100 µM (inactive) | > 100 µM (inactive) | > 100 µM (inactive) | > 100 µM (inactive) | > 100 µM (inactive) | > 100 µM (inactive) | > 100 µM (inactive) | > 100 µM (inactive) | > 100 | > 100 µM (inactive) | > 100 µM (inactive) | > 100 µM (inactive) | > 100 µM (inactive) | > 100 µM (inactive) | > 100 µM (inactive)
Cc1ccccc1NC(=O)CC(=O)NNC(Sc1ccccc1)c1cc(/N=N/c2ccc(Br)cc2)ccc1O (stereo not given) | 3.65 µM (inactive) | 2.73 µM (inactive) | 1.49 µM (inactive) | 2.49 µM (inactive) | 7.59 µM (inactive) | 2.09 µM (inactive) | 1.24 µM (inactive) | 6.01 µM (inactive) | 1.39 µM (inactive) | 5.93 µM (inactive) | 5.02 µM (inactive) | 5.26 µM (inactive) | 1 µM (active) | 0.836 | 3.08 µM (inactive) | 2.17 µM (inactive) | 0.332 µM (active) | 3.93 µM (inactive) | 0.552 µM (active) | 1.82 µM (inactive)
Nc1nccc2c1ncn2C1C=C(CO)C(O)C1O (stereo not given) | 18.4 µM (inactive) | 1.86 µM (inactive) | 27.5 µM (inactive) | 74.3 µM (inactive) | 23.4 µM (inactive) | 59.4 µM (inactive) | 356 µM (inactive) | > 100 µM (inactive) | > 95.5 µM (inactive) | 91.6 µM (inactive) | > 94.6 µM (inactive) | > 100 µM (inactive) | 11.5 µM (inactive) | 13.2 | 68.7 µM (inactive) | 30.3 µM (inactive) | 2.55 µM (inactive) | > 100 µM (inactive) | 41.8 µM (inactive) | 20.6 µM (inactive)
CC1=C(C(=O)Nc2ccccc2)C(c2ccc(C3C(C(=O)Nc4ccccc4)=C(C)NC(C)=C3C(=O)Nc3ccccc3)cc2)C(C(=O)Nc2ccccc2)=C(C)N1 | 2.13 µM (inactive) | 2.67 µM (inactive) | 1.61 µM (inactive) | 2.04 µM (inactive) | 7.35 µM (inactive) | 6.03 µM (inactive) | 2.26 µM (inactive) | 1.54 µM (inactive) | 6.46 µM (inactive) | 2.07 µM (inactive) | 4.72 µM (inactive) | 13.1 µM (inactive) | 1.67 µM (inactive) | 2.72 | 2.86 µM (inactive) | 3.68 µM (inactive) | 1.96 µM (inactive) | 2.7 µM (inactive) | 3.03 µM (inactive) | 2.04 µM (inactive)
CCCCCCOc1ccc(NC2=C(Cl)C(=O)c3c(O)ccc(O)c3C2=O)cc1 | 3.85 µM (inactive) | 3.1 µM (inactive) | 1.67 µM (inactive) | 1.86 µM (inactive) | > 10 µM (inactive) | 4.14 µM (inactive) | 1.31 µM (inactive) | 2.15 µM (inactive) | 6.32 µM (inactive) | 2.96 µM (inactive) | > 10 µM (inactive) | > 10 µM (inactive) | 2.58 µM (inactive) | 1.91 | 2.4 µM (inactive) | 1.77 µM (inactive) | 2.31 µM (inactive) | 2.03 µM (inactive) | 2.09 µM (inactive) | 3.16 µM (inactive)
Clc1ccc2oc(CCc3ccccc3)nc2c1 | 42.4 µM (inactive) | 49.9 µM (inactive) | > 100 µM (inactive) | 66.1 µM (inactive) | 83.2 µM (inactive) | 52 µM (inactive) | 20.3 µM (inactive) | 35.6 µM (inactive) | 69.7 µM (inactive) | 30.6 µM (inactive) | 32.5 µM (inactive) | 47.2 µM (inactive) | > 100 µM (inactive) | 38.5 | 45.8 µM (inactive) | > 100 µM (inactive) | 35.4 µM (inactive) | 20.5 µM (inactive) | 78.9 µM (inactive) | 47.2 µM (inactive)
O=C1c2c(Br)sc(Br)c2[C@@H](O)[C@H]1O | 15.1 µM (inactive) | 2.91 µM (inactive) | 7.13 µM (inactive) | 16.3 µM (inactive) | 19.9 µM (inactive) | 14.1 µM (inactive) | 18.4 µM (inactive) | 1.82 µM (inactive) | 53.7 µM (inactive) | 17.1 µM (inactive) | 16.7 µM (inactive) | 15.6 µM (inactive) | 16.7 µM (inactive) | 11.4 | 7.21 µM (inactive) | 16.9 µM (inactive) | 5.97 µM (inactive) | 19.4 µM (inactive) | 14.1 µM (inactive) | 18 µM (inactive)
